# Data: patent US8163778B2 (Hoffmann-LA Roche Inc., priority 2007, dated 2012)
# Biological target: T1, human liver FBPase (Homo sapiens, UniProt P09467)
# T1 construct: made in house; host or cells: E. coli
# T1 sequence (P09467 2-338 limits assumed): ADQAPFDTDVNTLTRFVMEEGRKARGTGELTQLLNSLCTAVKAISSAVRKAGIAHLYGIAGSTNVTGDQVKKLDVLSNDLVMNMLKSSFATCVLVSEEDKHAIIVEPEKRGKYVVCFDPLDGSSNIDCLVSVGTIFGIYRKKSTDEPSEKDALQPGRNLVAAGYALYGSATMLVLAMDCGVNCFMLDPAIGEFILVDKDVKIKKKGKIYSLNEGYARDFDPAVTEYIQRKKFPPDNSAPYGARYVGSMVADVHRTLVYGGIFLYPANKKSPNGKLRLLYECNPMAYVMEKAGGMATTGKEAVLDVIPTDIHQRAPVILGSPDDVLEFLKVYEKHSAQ
# Assay: FBPase assay (malachite green phosphate release)
# Format: biochemical
# Conditions: recombinant human liver FBPase, 50 μM fructose-1,6-bisphosphate
# Summary of the method: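 Recombinant human liver FBPase (E. coli-expressed, heat-treated, purified) reacted with 50 μM fructose-1,6-bisphosphate in pH 7.2 HEPES, 2 mM MgCl2, 1% DMSO, 50 min at room temperature. Released phosphate quantified with malachite green/ammonium molybdate reagent at 620 nm.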
row,SMILES,IC50 [µM]
1,"COCCc1sc(S(=O)(=O)NC(=O)Nc2cc(C(F)(F)F)cc(N)n2)cc1C [Compound 85, N-{[6-Amino-4-(trifluoromethyl)pyridin-2-yl]carbamoyl}-5-(2-methoxyethyl)-4-methylthiophene-2-sulfonamide]",0.756
2,"COCCc1sc(S(=O)(=O)NC(=O)Nc2cc(SC)cc(C)n2)cc1C [Compound 86, 5-(2-Methoxyethyl)-4-methyl-N-{[6-methyl-4-(methylthio)pyridin-2-yl]carbamoyl}thiophene-2-sulfonamide]",1.78
3,"CSc1cc(N)nc(NC(=O)NS(=O)(=O)c2coc3ccc(Br)cc23)c1 [Compound 87, N-{[6-Amino-4-(methylthio)pyridin-2-yl]carbamoyl}-5-bromo-1-benzofuran-3-sulfonamide]",4.76
4,"COCCc1sc(S(=O)(=O)NC(=O)Nc2cc(SC)cc(C(=O)O)n2)cc1C [Compound 88, Sodium-6-[({[5-(2-methoxyethyl)-4-methyl-2-thienyl]sulfonyl}carbamoyl)amino]-4-(methylthio)pyridine-2-carboxylate]",55.4
5,"CNC(=O)Nc1cc(SC)cc(NC(=O)NS(=O)(=O)c2coc3ccccc23)n1 [Compound 89, N-({6-[(Methylcarbamoyl)amino]-4-(methylthio)pyridin-2-yl}carbamoyl)-1-benzofuran-3-sulfonamide]",0.5
6,"COCCc1sc(S(=O)(=O)NC(=O)Nc2cc(C(F)(F)F)cc(Cl)n2)cc1C [Compound 90, N-{[6-chloro-4-(trifluoromethyl)pyridin-2-yl]carbamoyl}-5-(2-methoxyethyl)-4-methylthiophene-2-sulfonamide]",1.06
7,"COCCc1sc(S(=O)(=O)NC(=O)Nc2cc(C(F)(F)F)cc(C(=O)OC)n2)cc1C [Compound 91, Methyl-6-[({[5-(2-methoxyethyl)-4-methyl-2-thienyl]sulfonyl}carbamoyl)amino]-4-(trifluoromethyl)pyridine-2-carboxylate]",2.16
8,"COC(=O)c1cc(C(F)(F)F)cc(NC(=O)NS(=O)(=O)c2cc(C)c(CCOC(C)=O)s2)n1 [Compound 92, Methyl-6-[({[5-(2-acetoxyethyl)-4-methyl-2-thienyl]sulfonyl}carbamoyl)amino]-4-(trifluoromethyl)pyridine-2-carboxylate]",1.61
9,"CC(=O)OCCc1sc(S(=O)(=O)NC(=O)Nc2cc(C(F)(F)F)cc(Cl)n2)cc1C [Compound 93, 2-{5-[({[6-chloro-4-(trifluoromethyl)pyridin-2-yl]carbamoyl}amino)sulfonyl]-3-methyl-2-thienyl}ethyl acetate]",0.844
10,"CNC(=O)Nc1cc([S+](C)[O-])cc(NC(=O)NS(=O)(=O)c2cc(C)c(CCOC)s2)n1 (centres unmarked) [Compound 94, 5-(2-Methoxyethyl)-4-methyl-N-({6-[(methylcarbamoyl)amino]-4-(methylsulfinyl)pyridin-2-yl}carbamoyl)thiophene-2-sulfonamide]",1.6
11,"COCCc1sc(S(=O)(=O)NC(=O)Nc2cc([S+](C)[O-])cc(NC(N)=O)n2)cc1C (centres unmarked) [Compound 95, N-{[6-(Carbamoylamino)-4-(methylsulfinyl)pyridin-2-yl]carbamoyl}-5-(2-methoxyethyl)-4-methylthiophene-2-sulfonamide]",5.08
12,"COCCc1sc(S(=O)(=O)NC(=O)Nc2cc(C(F)(F)F)cc(C)n2)cc1C [Compound 96, 5-(2-methoxyethyl)-4-methyl-N-{[6-methyl-4-(trifluoromethyl)pyridin-2-yl]carbamoyl}thiophene-2-sulfonamide]",0.527
13,"CNC(=O)c1cc(C(F)(F)F)cc(NC(=O)NS(=O)(=O)c2cc(C)c(CCO)s2)n1 [Compound 97, Methyl-6-[({[5-(2-hydroxyethyl)-4-methyl-2-thienyl]sulfonyl}carbamoyl)amino]-4-(trifluoromethyl)pyridine-2-carboxamide]",0.278
14,"COC(=O)c1cc(C(F)(F)F)cc(NC(=O)NS(=O)(=O)c2csc(C)c2)n1 [Compound 98, Methyl-6-({[(5-methyl-3-thienyl)sulfonyl]carbamoyl}amino)-4-(trifluoromethyl)pyridine-2-carboxylate]",2.29
15,"CCOC(=O)c1cc(NC(=O)NC)nc(NC(=O)NS(=O)(=O)c2cc(C)c(CCOC)s2)c1 [Compound 99, Ethyl-2-[({[5-(2-methoxyethyl)-4-methyl-2-thienyl]sulfonyl}carbamoyl)amino]-6-[(methylcarbamoyl)amino]isonicotinate]",0.92
16,"CCOC(=O)c1cc(N)nc(NC(=O)NS(=O)(=O)c2cc(C)c(CCOC)s2)c1 [Compound 100, Ethyl-2-amino-6-[({[5-(2-methoxyethyl)-4-methyl-2 thienyl]sulfonyl}carbamoyl)amino]isonicotinate]",3.41
17,"CNC(=O)Nc1cc(C(N)=O)cc(NC(=O)NS(=O)(=O)c2cc(C)c(CCOC)s2)n1 [Compound 101, 2-[({[5-(2-Methoxyethyl)-4-methyl-2-thienyl]sulfonyl}carbamoyl)amino]-6-[(methylcarbamoyl)amino]isonicotinamide]",> 100
18,"COCCc1sc(S(=O)(=O)NC(=O)Nc2cc(C(N)=O)cc(N)n2)cc1C [Compound 102, 2-Amino-6-[({[5-(2-methoxyethyl)-4-methyl-2-thienyl]sulfonyl}carbamoyl)amino]isonicotinamide]",42

# Next, values leading:
row,IC50 [µM],SMILES
1,5.7,"CNC(=O)Nc1cc(C(=O)NC)cc(NC(=O)NS(=O)(=O)c2cc(C)c(CCOC)s2)n1 [Compound 103, 2-[({[5-(2-Methoxyethyl)-4-methyl-2-thienyl]sulfonyl}carbamoyl)amino]-N-methyl-6-[(methylcarbamoyl)amino]isonicotinamide]"
2,> 100,"CNC(=O)c1cc(N)nc(NC(=O)NS(=O)(=O)c2cc(C)c(CCOC)s2)c1 [Compound 104, 2-Amino-6-[({[5-(2-methoxyethyl)-4-methyl-2-thienyl]sulfonyl}carbamoyl)amino]-N-methylisonicotinamide]"
3,2.61,"COC(=O)c1cc(C(F)(F)F)cc(NC(=O)NS(=O)(=O)c2cc(C)c(CCO)s2)n1 [Compound 105, Methyl-6-[({[5-(2-hydroxyethyl)-4-methyl-2-thienyl]sulfonyl}carbamoyl)amino]-4-(trifluoromethyl)pyridine-2-carboxylate]"
4,1.5,"Cc1cc(S(=O)(=O)NC(=O)Nc2cc(C(F)(F)F)cc(CO)n2)sc1CCO [Compound 106, 5-(2-Hydroxyethyl)-N-{[6-(hydroxymethyl)-4-(trifluoromethyl)pyridin-2-yl]carbamoyl}-4-methylthiophene-2-sulfonamide]"
5,2.55,"CNC(=O)Nc1cc(C(N)=NO)cc(NC(=O)NS(=O)(=O)c2cc(C)c(CCOC)s2)n1 [Compound 107, N′-Hydroxy-2-[({[5-(2-methoxyethyl)-4-methyl-2-thienyl]sulfonyl}carbamoyl)amino]-6-[(methylcarbamoyl)amino]pyridine-4-carboximidamide]"
6,16,"COCCc1sc(S(=O)(=O)NC(=O)Nc2cc(C(N)=NO)cc(N)n2)cc1C [Compound 108, 2-Amino-N′-hydroxy-6-[({[5-(2-methoxyethyl)-4-methyl-2-thienyl]sulfonyl}carbamoyl)amino]pyridine-4-carboximidamide]"
7,1.87,"CNC(=O)Nc1cc(-c2noc(C)n2)cc(NC(=O)NS(=O)(=O)c2cc(C)c(CCOC)s2)n1 [Compound 109, 5-(2-Methoxyethyl)-4-methyl-N-({6-[(methylcarbamoyl)amino]-4-(5-methyl-1,2,4-oxadiazol-3-yl)pyridin-2-yl}carbamoyl)thiophene-2-sulfonamide]"
8,16.4,"COCCc1sc(S(=O)(=O)NC(=O)Nc2cc(-c3noc(C)n3)cc(N)n2)cc1C [Compound 110, N-{[6-Amino-4-(5-methyl-1,2,4-oxadiazol-3-yl)pyridin-2-yl]carbamoyl}-5-(2-methoxyethyl)-4-methylthiophene-2-sulfonamide]"
9,0.345,"CC(=O)OCCc1sc(S(=O)(=O)NC(=O)Nc2cc(C(F)(F)F)cc(C)n2)cc1C [Compound 111, 2-{3-methyl-5-[({[6-methyl-4-(trifluoromethyl)pyridin-2-yl]carbamoyl}amino)sulfonyl]-2-thienyl}ethyl acetate]"
10,0.8,"COCCc1sc(S(=O)(=O)NC(=O)Nc2cc(SC)cc(C(N)=O)n2)cc1C [Compound 112, 6-[({[5-(2-Methoxyethyl)-4-methyl-2-thienyl]sulfonyl}carbamoyl)amino]-4-(methylthio)pyridine-2-carboxamide]"
11,0.84,"CNC(=O)c1cc(SC)cc(NC(=O)NS(=O)(=O)c2cc(C)c(CCOC)s2)n1 [Compound 113, 6-[({[5-(2-Methoxyethyl)-4-methyl-2-thienyl]sulfonyl}carbamoyl)amino]-N-methyl-4-(methylthio)pyridine-2-carboxamide]"
12,0.515,"Cc1cc(C(F)(F)F)cc(NC(=O)NS(=O)(=O)c2cc(C)c(CCO)s2)n1 [Compound 114, 5-(2-Hydroxyethyl)-4-methyl-N-{[6-methyl-4-(trifluoromethyl)pyridin-2-yl]carbamoyl}thiophene-2-sulfonamide]"
13,2.78,"COCCc1sc(S(=O)(=O)NC(=O)Nc2cc(SC)cc(C(N)=NO)n2)cc1C [Compound 115, N′-Hydroxy-6-[({[5-(2-methoxyethyl)-4-methyl-2-thienyl]sulfonyl}carbamoyl)amino]-4-(methylthio)pyridine-2-carboximidamide]"
14,1.48,COCCc1sc(S(=O)(=O)NC(=O)Nc2cc(OC)cc(-c3noc(C)n3)n2)cc1C [Compound 116]
